Experimental data: patent US20130158111A1, “Compositions and Methods for Depleting Mutant p53” (Georgetown University, priority 2011, published 2013)

Columns and labels:
[1] = biological target: T1, mutant (G245C) p53 DNA-binding domain (Homo sapiens, UniProt P04637, G245C); assay: Monochlorobimane fluorometric cysteine binding assay; details: 100 μM ITC, 1 h, 32 C; compared with trityl ITC, cyclohexylmethyl ITC, SFN, AITC, and PITC (p<0.05)
T1 construct: made in house; host or cells: Escherichia coli BL21
Procedure: BL21 […] Escherichia coli were transformed with pET29b wild-type or mutant (G245C) p53 DNA binding domain (DBD) plasmids. The E. coli were then cultured in LB media supplemented with 100 μM ZnCl2 and 25 μg/mL kanamycin at 37° C. until OD600=0.6-0.8. Protein expression was induced by 0.1 mM isopropyl β-D-1-thiogalactopyranoside for 16 h at 37 gC for wild-type and 16 gC for mutant p53. Bacterial pellets were then harvested by centrifugation at 5000×g, 10 min, 4 gC, and lysed via sonication in 50 mM Tris, 50 mM KCl, 5 mM dithiothreitol, 1 mM PMSF, pH 7 buffer. The soluble fraction was passed through a Capto S cation exchange column (GE Healthcare) and eluted with 50 mM Tris, 200 mM KCl, 5 mM DTT, pH 7. Eluted protein was dialyzed overnight against a non-salt dialysis buffer (50 mM Tris, 5 mM DTT, pH 7) and loaded onto a HiTrap Heparin HP column (GE Healthcare). The p53 DBD was purified via a AKTApurifier-10 protein liquid chromatography system (GE Healthcare) with an increasing KCl salt gradient, and purity was tested by SDSPAGE and Coomassie blue staining. Purified protein was dialyzed in PBS, and protein concentrations were determined prior to performing fluorescence experiments.
In a white 96-well plate, 100 μL of purified mutant (G245C) p53 DNA-binding domain protein in PBS was treated with DMSO, 100 μM ITCs in DMSO, or 500 μM iodoacetamide (positive binding control). An additional well containing 100 μL of PBS was used to determine background. Samples were incubated with compounds in the dark for 1 h at 32 gC, after which […] of 10 mM monochlorobimane was added (in the dark), and samples were further incubated in the dark at 32 gC for 30 min. Fluorescence readings were then obtained using a BIO-TEK Synergy HT plate reader (λex 380 nm; λem 485 nm).

[2] = system: MDA-MB-231 breast cancer cells; assay: FITC-annexin V / propidium iodide apoptosis assay; assay type: cell-based, Human; details: MDA-MB-231, 10 μM, 24 h; for induction of apoptosis vs DMSO: p<0.05
Procedure: Then, 100 μL of each sample was added to a 5 mm tube, and the annexin V apoptosis kit protocol was followed. Samples were immediately analyzed with flow cytometry.

[3] = biological target: T2, mutant p53 protein in H596 (G245C) non-small-cell lung cancer cells (Homo sapiens, UniProt P04637, G245C); assay: Immunoblot of mutant p53 protein in H596 cells; assay type: cell-based
T2 construct: host or cells: H596
Text: (§1) Human H596, A549, HCT116, MDA-MB-231, MDA-MB-468, MCF-7, DU145, MCF-10A, SW480, and SCC-4 cells were obtained from ATCC (Manassas, Va.). H1299-175H cells were kindly provided by Dr. Maria Laura Avantaggiati (Georgetown University). Cells were maintained in DMEM or RPMI-1640 medium supplemented with 10% FBS (Hyclone). […] 2,2-Diphenylethyl ITC, 4-phenoxybenzyl ITC, 4-methoxybenzyl ITC, 4-chlorobenzyl ITC, Dα-methylbenzyl ITC, trityl ITC, and 3-phenylpropyl ITC were purchased from Trans World Chemicals (Rockville, Md.). Erucin and 4-phenylbutyl ITC were from LKT Laboratories, Inc. (St. Paul, Minn.). […] The p53 DO-1 and β-actin antibodies were purchased from Santa Cruz Biotechnology (Santa Cruz, Calif.), horseradish peroxidase-labeled goat antimouse secondary antibodies were purchased from GE-Healthcare (Pittsburgh, Pa.), and Bio-Rad Protein Assay was from Bio-Rad (Hercules, Calif.).
(§2) Whole cell lysates were prepared in lysis buffer (20 mM HEPES, pH 7.4, 2 mM EGTA, 50 mM β-glycerol phosphate, 1% Triton X-100, 10% glycerol, 1 mM DTT, 1 mM PMSF, […], 1 mM Na3-VO4, and 5 mM NaF). For immunoblot analysis, equal amounts of protein were resolved on 4-12% NuPAGE BisTris gels (Invitrogen) and transferred to PVDF membranes (Millipore). The membranes were blocked with 5% milk in TBST and were then probed with p53 (DO-1) or β-actin antibody. Proteins were detected using enhanced chemiluminescence (ECL) reagents (GE Healthcare).

[4] = biological target: T3, mutant p53 in MDA-MB-231 breast cancer cells (Homo sapiens, UniProt P04637, R280K); assay: Immunoblot of mutant p53 in MDA-MB-231 cells treated with ITCs; assay type: cell-based; details: for depletion of mutant p53 (FIG. 3B-E): H596 20 μM / MDA-MB-231 10 μM ITCs
T3 construct: host or cells: MDA-MB-231
Text: as §1, §2

S=C=NCc1ccccc1 [BITC, benzyl isothiocyanate]
binding affinity for mutant (G245C) p53 DBD (free thiols, relative fluorescence) [1]: greater binding affinities | induction of apoptosis vs DMSO [2]: greater induction of apoptosis | level of mutant p53 ([3]; H596, 10 μM, 2 h): significantly reduced | depletion of mutant p53 at equimolar concentrations ([3]; H596, 20 μM ITCs, 24 h, compared with DMSO control): approximately the same extent | depletion of mutant p53 (FIG. 3B-E) [4]: deplete mutant p53 | depletion of mutant p53 at equimolar concentrations ([4]; MDA-MB-231, 10 μM ITCs, 24 h, compared with DMSO control): approximately the same extent

S=C=NCc1ccc(Cl)cc1 [4-chlorobenzyl ITC]
binding affinity for mutant (G245C) p53 DBD (free thiols, relative fluorescence) [1]: greater binding affinities

COc1ccc(CN=C=S)cc1 [4-methoxybenzyl ITC]
binding affinity for mutant (G245C) p53 DBD (free thiols, relative fluorescence) [1]: greater binding affinities

CNCCc1ccccc1 [NMPEA, N-methylphenethylamine, reference compound]
mutant p53 protein level ([3]; H596, 15 μM, up to 24 h): failed to alter | mutant p53 protein level ([3]; H596, 60 μM for 2 h): failed to alter

S=C=NCC(c1ccccc1)c1ccccc1 [2,2-diphenylethyl ITC, 2,2-diphenylethyl isothiocyanate]
binding affinity for mutant (G245C) p53 DBD (free thiols, relative fluorescence) [1]: greater binding affinities | induction of apoptosis vs DMSO [2]: greater induction of apoptosis | rank as inducer of apoptosis ([2]; p<0.05 compared with BITC): strongest inducer of apoptosis | rank as depletor of mutant p53 among ITCs studied ([4]; FIG. 3B-E): most potent | depletion of mutant p53 (FIG. 3B-E) [4]: deplete mutant p53

S=C=NCCCCc1ccccc1 [4-PBITC, 4-phenylbutyl ITC]
induction of apoptosis vs DMSO [2]: greater induction of apoptosis | depletion of mutant p53 (FIG. 3B-E) [4]: deplete mutant p53

S=C=NCCCc1ccccc1 [3-PPITC, 3-phenylpropyl ITC]
binding affinity for mutant (G245C) p53 DBD (free thiols, relative fluorescence) [1]: greater binding affinities | induction of apoptosis vs DMSO [2]: greater induction of apoptosis | depletion of mutant p53 (FIG. 3B-E) [4]: deplete mutant p53
